# In PMC10489073 (Molecules, 2023):
# Experiments:
# In vivo pharmacokinetics = conditions: SD rats; for AUC(0-inf): SD
# Protocol: The animal experiments were conducted under the guidelines of the “Regulations for the Administration of Affairs Concerning Experimental Animals” (revised 2017, State Council No. 676). The pharmacokinetic properties (PK) were performed in SD rats, and the procedures conducted were in accordance with institutional guidelines. Male SD rats (weighting 200 ± 20 g) fasted for 12 h and were divided into two groups, three in each group: oral administration of BC-05 (10 mg/kg) and intravenous administration of BC-05 (10 mg/kg). A total of 300 μL of a blood sample was collected through retro-orbital plexus from the rats in each group at 0 h, 0.033 h, 0.167 h, 0.5 h, 0.75 h, l h, 2 h, 4 h, 6 h, 8 h, 10 h, and 24 h. Plasma samples were placed in microcentrifuge tubes containing Li-heparin to avoid coagulant, separated by centrifugation at 12,000 rpm for 10 min, and stored at −80 °C until sample analysis. After the precipitation of proteins, samples were centrifuged at 15,000 rpm for 10 min, and the supernatant was reserved for HPLC-MS/MS analysis.
# [1] = system: macrophage phagocytic activity (MPA) of the reticular endothelial system; assay: Macrophage phagocytosis by carbon clearance test; type: in vivo, Kunming mice; conditions: twice a week for two weeks; for Carbon Clearance Index (K): Ctrl 0.057 ± 0.0061; for Phagocytosis Index (α): Ctrl 5.36 ± 0.19
# Protocol: The animal experiments were conducted under the guidelines of the “Regulations for the Administration of Affairs Concerning Experimental Animals” (revised 2017, State Council No. 676). Kunming mice were randomly divided into control groups and treatment groups. After oral administration of test compounds twice a week for two weeks, the mice were injected with carbon ink suspension (Indian Ink, Camel) (100 μL/10 g of body weight) via the tail vein. Two and ten minutes after the injection of carbon suspension, the blood samples were collected from a retro-orbital vein. A total of 25 μL of a blood sample was directly added into 2 mL of 0.1% sodium carbonate solution. The absorbance of the sample was measured at 600 nm using a UV-visible spectrophotometer. The K value was calculated by the formula Log (OD2) − Log (OD10)/(T2 − T1), where OD2 and OD10 were the absorbance of blood at 2 and 10 min, respectively; T2 is the last time point of blood collection; T1 is the first time point of blood collection. The α value was calculated by the formula (k^1/3 × body weight)/(liver weight + spleen weight).
# [2] = biological target: T1, chymotrypsin-like (CT-L) activity of the 20S proteasome (Homo sapiens, UniProt P20618+P28074); assay: 20S proteasome inhibition assay (Proteasome-Glo Chymotrypsin-Like); type: biochemical; conditions: n ≥ 3, SD <20% of the mean, read-out: IC50 toward Chymotrypsin-like (CT-L)
# T1 construct: purchased R&D systems, Minneapolis, MN, USA
# Protocol: The 20S proteasome inhibition assay was performed using the Proteasome-Glo™ Chymotrypsin-Like Assay kit (Promega, Alexandria, NSW, Australia). Suc-LLVY-aminoluciferin is a substate that can be cleaved by the 20S proteasome, release the […] (aminoluciferin) and allow the luciferase reaction to produce light. Gradient concentration of tested compounds and the purified 20S proteasome enzyme (R&D systems, Minneapolis, MN, USA) were successively added into a transparent 96-well plate and mixed thoroughly. Then, 50 µL of a […] reagent was added. Gently mix contents with a plate shaker at 300 to 500 rpm for 30 s. Incubate at room temperature for an hour. The luminescence was recorded via the Tecan Spark multimode microplate.
# MM1.S cells = assay: Cell apoptosis assay (Annexin V-FITC/PI flow cytometry); type: cell-based; conditions: 48 h
# Protocol: For the cell apoptosis assay, MM1.S cells were plated in 12-well plates with a density of 6 × 10^5 cells per well and treated with BC-05 (1, 2, and 4 μM), ixazomib (10 nM) or a vehicle (0.5% DMSO) for 48 h after 12 h fixation. Then, cells were harvested, washed with a cold PBS buffer, and resuspended in 500 μL of an annexin V binding buffer. After being stained with 5 μL of Annexin V-FITC and 5 μL of propidium iodide, the cells were detected by a flow cytometer (Beckman Coulter Inc., Sharon Hill, PA, USA).
# [3] = Subacute toxicity experiment; type: in vivo; conditions: SD rats, male and female, 0.006, 0.02 and 0.06 mmol/kg p.o. twice a week, 30 days
# Protocol: The animal experiments were conducted under the guidelines of the “Regulations for the Administration of Affairs Concerning Experimental Animals” (revised 2017, State Council No. 676). For the subacute toxicity study, 12 male and 12 female SD rats (purchased from the Weifang Medical University) were randomly divided into three treatment groups and a control group (n = 6, half male and half female). The rats in treatment groups were given 0.06 mmol/kg (p.o. BIW), 0.02 mmol/kg (p.o. BIW), and 0.006 mmol/kg (p.o. BIW) BC-05, respectively, for 30 days, while the rats in control groups were treated with the same volume of a vehicle solution. The rats were weighed each day and dissected at day 30. Behavioral abnormalities such as lethargy, ruffled fur, anorexia, clonic convulsion, and diarrhea were recorded throughout the entire experimental period.
# CD13 from Porcine Kidney = biological target: T2, CD13 from Porcine Kidney (Sus scrofa, UniProt P15145); assay: CD13 inhibition assay (porcine aminopeptidase, L-leucine-p-nitroanilide); type: biochemical; conditions: mean ± SD, n ≥ 3; read-out: IC50 toward CD13 from Porcine Kidney
# T2 construct: purchased Sigma Chemical Co., St. Louis, MO, USA
# Protocol: L-leucine-p-nitroanilide can be degraded by recombinant human aminopeptidase (R&D systems) or procine aminopeptidase (Sigma Chemical Co., St. Louis, MO, USA) and produce light absorption at 405 nm. The CD13 inhibitory activity of synthetic compounds was identified according to the degree of degradation of L-leucine-p-nitroanilide. L-leucine-p-nitroanilide was dissolved in DMSO and mixed with tested compounds in a transparent 96-well plate; then, aminopeptidase was added using phosphate solution (pH 7.2) as the assay buffer. After incubation at 37 °C for 30 min, the absorption was detected under a 405 nm wavelength via Tecan Spark multimode microplate.
# [4] = male, rat, plasma, iv, i.v. at 10 mg/kg, n = 3
# [5] = male, rat, plasma, oral at 10 mg/kg, n = 3
# T2 sequence (P15145 whole entry): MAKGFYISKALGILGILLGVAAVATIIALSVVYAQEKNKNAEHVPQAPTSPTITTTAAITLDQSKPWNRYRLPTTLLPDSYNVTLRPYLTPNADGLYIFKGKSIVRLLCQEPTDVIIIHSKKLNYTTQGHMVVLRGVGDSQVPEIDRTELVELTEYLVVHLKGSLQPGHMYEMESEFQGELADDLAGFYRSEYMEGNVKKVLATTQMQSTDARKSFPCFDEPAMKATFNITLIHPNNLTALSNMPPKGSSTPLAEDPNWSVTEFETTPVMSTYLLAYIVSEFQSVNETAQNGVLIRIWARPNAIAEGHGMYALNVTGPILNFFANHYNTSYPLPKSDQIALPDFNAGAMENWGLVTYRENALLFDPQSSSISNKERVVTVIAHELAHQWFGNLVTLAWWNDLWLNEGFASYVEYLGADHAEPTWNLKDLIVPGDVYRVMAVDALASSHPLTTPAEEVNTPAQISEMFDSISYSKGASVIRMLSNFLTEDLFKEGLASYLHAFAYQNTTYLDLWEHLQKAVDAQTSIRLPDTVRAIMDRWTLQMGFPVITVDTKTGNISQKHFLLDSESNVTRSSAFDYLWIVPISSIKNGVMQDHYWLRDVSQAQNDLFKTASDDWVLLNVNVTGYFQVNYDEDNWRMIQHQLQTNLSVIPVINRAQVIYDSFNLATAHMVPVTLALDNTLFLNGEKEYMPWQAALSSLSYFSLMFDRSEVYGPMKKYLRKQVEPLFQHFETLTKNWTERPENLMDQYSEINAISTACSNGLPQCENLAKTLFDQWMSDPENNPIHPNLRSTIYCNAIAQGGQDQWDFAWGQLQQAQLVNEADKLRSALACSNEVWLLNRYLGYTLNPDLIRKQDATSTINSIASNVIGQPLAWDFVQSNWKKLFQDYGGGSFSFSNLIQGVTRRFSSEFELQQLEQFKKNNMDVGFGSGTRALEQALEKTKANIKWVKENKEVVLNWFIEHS
compound,measurement,setting,value
"CC(C)C[C@H](NC(=O)[C@@H](O)[C@H](N)Cc1ccccc1)B1OC(=O)C(CC(=O)O)(CC(=O)O)O1 [BC-05, 2,2′-(2-((R)-1-((2S,3R)-3-amino-2-hydroxy-4-phenylbutanamido)-3-methylbutyl)-5-oxo-1,3,2-dioxaborolane-4,4-diyl)diacetic acid]",CL,"In vivo pharmacokinetics; oral at 10 mg/kg, n = 3",128 ± 11 mL/min/kg
same,AUC0–∞,"In vivo pharmacokinetics; oral at 10 mg/kg, n = 3, 10 mg/kg",1307.71 ± 116.74 μg/L∗h
same,AUC(0-inf),"In vivo pharmacokinetics; male, rat, plasma, iv, 10 mg/kg, i.v. at 10 mg/kg, n = 3",5150 ± 482 ng·h/mL
same,AUC(0-inf),"In vivo pharmacokinetics; male, rat, plasma, po, 10 mg/kg, oral at 10 mg/kg, n = 3",1310 ng·h/mL
same,Cmax,In vivo pharmacokinetics; [4],10500 ng/mL
same,Tmax,In vivo pharmacokinetics; [4],0.03 h
same,clearance,In vivo pharmacokinetics; [4],32.5 mL/min/kg
same,half-life,In vivo pharmacokinetics; [4],1.72 ± 0.67 h
same,bioavailability,"In vivo pharmacokinetics; male, rat, plasma, oral at 10 mg/kg vs i.v. 10 mg/kg, read-out: F (oral bioavailability)",24.9 ± 4.32%
same,Cmax,In vivo pharmacokinetics; [5],373 ± 49.6 ng/mL
same,Tmax,In vivo pharmacokinetics; [5],2 h
same,half-life,In vivo pharmacokinetics; [5],2.35 ± 1.23 h
same,Carbon Clearance Index (K),[1]; 0.006 mmol/kg oral,0.066 ± 0.0077
same,Phagocytosis Index (α),[1]; 0.006 mmol/kg oral,6.60 ± 0.26
same,Carbon Clearance Index (K),[1]; 0.008 mmol/kg oral,0.076 ± 0.0016
same,Phagocytosis Index (α),[1]; 0.008 mmol/kg oral,6.61 ± 0.05
same,IC50,[2],1390 nM
same,cell apoptosis,MM1.S cells; 1 µM,12.4%
same,cell apoptosis,MM1.S cells; 2 µM,73.1%
same,cell apoptosis,MM1.S cells; 4 µM,88.0%
same,body weight loss,[3],did not exhibit any significant body weight loss
same,IC50,CD13 from Porcine Kidney,650 ± 50 nM
